Measurements from US20160297830A1, “NOVEL COMPOUNDS USEFUL FOR THE TREATMENT OF BACTERIAL INFECTIOUS DISEASES” (GALAPAGOS NV, priority 2013, published 2016).
Values after ≈ are worked out from the molar mass of the structure shown. Like-named read-outs stand apart in the source and are kept apart here.

Key:
[1] = test system: Methicillin Resistant S. aureus Sa2 (MRSA); test: animal or person; type: in vivo; conditions: Study 1, 50 mg/kg PO BID, sample 24 h post infection, lung
[2] = test system: H. influenza Hi47 clinical strain, Ampicillin Resistant; test: organism not typed; type: cell-based; conditions: read-out: MIC Hi47
[3] = target: DNA Polymerase IIIα (DnaE) from Staphylococcus aureus (Staphylococcus aureus, UniProt Q6GG04); test: biochemical
DNA Polymerase IIIα (DnaE) from Staphylococcus aureus, sequence (Q6GG04 1-1022): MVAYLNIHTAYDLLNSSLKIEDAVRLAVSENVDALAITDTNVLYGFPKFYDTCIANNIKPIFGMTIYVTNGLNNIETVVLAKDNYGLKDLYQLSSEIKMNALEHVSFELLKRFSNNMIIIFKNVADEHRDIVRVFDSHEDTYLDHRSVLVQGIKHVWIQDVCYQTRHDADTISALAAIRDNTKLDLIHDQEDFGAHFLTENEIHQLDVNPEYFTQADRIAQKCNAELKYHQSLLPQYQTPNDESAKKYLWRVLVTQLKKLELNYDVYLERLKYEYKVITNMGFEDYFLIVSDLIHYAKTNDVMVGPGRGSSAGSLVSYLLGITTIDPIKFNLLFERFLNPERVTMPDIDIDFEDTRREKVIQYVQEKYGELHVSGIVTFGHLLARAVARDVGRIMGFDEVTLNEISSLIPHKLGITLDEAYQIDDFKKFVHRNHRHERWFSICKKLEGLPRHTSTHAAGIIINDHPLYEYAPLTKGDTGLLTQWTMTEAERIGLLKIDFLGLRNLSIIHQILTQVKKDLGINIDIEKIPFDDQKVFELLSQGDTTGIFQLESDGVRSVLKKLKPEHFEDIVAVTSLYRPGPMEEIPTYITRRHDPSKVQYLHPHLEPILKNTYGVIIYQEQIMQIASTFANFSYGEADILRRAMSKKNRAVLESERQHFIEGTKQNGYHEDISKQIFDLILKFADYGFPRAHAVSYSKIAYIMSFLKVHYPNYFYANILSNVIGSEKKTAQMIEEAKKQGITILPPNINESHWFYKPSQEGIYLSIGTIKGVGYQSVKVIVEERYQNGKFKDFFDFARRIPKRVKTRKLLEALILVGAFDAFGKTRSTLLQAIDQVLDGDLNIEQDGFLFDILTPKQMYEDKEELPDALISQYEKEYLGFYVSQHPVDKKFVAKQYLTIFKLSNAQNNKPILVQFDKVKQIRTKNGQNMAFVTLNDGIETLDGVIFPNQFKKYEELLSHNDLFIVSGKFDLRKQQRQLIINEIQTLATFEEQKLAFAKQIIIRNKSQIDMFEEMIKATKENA

[4] = test system: H. influenza Hi3 ATCC 31517; test: organism not typed; type: cell-based; conditions: read-out: MIC Hi3
[5] = test system: S. aureus Sa26 ATCC 25923; test: Antibacterial activity assay (MIC), S. aureus Sa26; type: cell-based; conditions: Staphylococcus aureus
[6] = test system: S. aureus Sa2 clinical strain NCIMB 41953, MRSA; test: microbe, parasite or virus in culture; type: cell-based; conditions: Staphylococcus aureus, read-out: MIC Sa2
DNA III Polymerase E = DNA III Polymerase E (Escherichia coli, UniProt P10443); test: In vitro activity against DNA III Polymerase E, E. coli; type: biochemical; conditions: DNA polymerase III, E. coli; read-out: IC50 semiquantitative scoring, E. coli
DNA III Polymerase E, sequence (P10443 whole entry): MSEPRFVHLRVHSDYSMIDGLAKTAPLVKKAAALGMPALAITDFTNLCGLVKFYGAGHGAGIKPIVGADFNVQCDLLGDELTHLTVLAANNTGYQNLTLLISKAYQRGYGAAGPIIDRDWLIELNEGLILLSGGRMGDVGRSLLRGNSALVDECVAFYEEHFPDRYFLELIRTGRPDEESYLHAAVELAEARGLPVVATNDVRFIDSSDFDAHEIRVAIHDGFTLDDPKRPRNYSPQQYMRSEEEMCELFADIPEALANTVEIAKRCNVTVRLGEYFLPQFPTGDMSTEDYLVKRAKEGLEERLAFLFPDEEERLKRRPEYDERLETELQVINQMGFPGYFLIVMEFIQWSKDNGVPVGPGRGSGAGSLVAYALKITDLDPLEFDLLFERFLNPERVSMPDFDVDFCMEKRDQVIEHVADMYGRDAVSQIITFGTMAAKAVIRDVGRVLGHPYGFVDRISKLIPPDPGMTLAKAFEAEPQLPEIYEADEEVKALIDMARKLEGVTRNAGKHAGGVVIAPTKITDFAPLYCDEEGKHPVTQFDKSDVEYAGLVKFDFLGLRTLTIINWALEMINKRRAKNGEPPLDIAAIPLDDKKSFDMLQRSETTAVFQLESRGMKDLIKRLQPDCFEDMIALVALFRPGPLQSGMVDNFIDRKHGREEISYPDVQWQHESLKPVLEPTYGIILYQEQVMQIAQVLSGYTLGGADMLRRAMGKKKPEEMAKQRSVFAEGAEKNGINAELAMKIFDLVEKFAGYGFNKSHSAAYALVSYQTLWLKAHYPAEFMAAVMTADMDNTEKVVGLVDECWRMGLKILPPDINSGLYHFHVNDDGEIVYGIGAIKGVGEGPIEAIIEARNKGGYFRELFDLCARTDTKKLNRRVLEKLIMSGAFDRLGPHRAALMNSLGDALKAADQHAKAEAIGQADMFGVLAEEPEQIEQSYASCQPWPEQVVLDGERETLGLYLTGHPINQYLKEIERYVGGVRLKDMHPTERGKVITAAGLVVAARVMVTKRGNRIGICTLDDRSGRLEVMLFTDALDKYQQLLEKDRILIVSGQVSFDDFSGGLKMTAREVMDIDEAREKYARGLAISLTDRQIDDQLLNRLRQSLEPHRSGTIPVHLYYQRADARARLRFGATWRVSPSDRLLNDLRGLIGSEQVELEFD
Procedure: A radioactive filterplate assay was used to assess inhibitory activity of compounds on DNA Polymerase IIIα. Five μL of a dilution series of compound, starting from 100 μM highest concentration, 1/5 dilution, was added to the wells of a 96 well plate. Recombinant enzyme was diluted to 0.47 μg/mL in a buffer containing 20 mM Tris pH7.5, 8 mM DTT, 10 mM MgOAc, 0.05% CHAPS and 10 μL thereof was added to the compound dilutions. The reaction was started with the addition of 10 μL substrate in the same buffer, containing activated calf thymus DNA (Sigma, D4522), dATP, dGTP, dCTP, dTTP (Invitrogen) and [α-33P]-dTTP (Perkin Elmer, NEG605H001) at a concentration of 62.5 μg/mL, 50 nM and 7.5 μCi/mL respectively. The mixture was incubated at 30° C. for 120 minutes and terminated by addition of phosphoric acid. Samples were transferred to filter plates and incorporated radioactivity was measured by the Topcount. Data were converted to percent inhibition with respect to positive and negative controls. IC50 values were calculated using Graph Prism™ software.

E. coli Ec1 ATCC 25922 = test: Antibacterial activity assay (MIC), E. coli Ec1; type: cell-based; conditions: Escherichia coli
S. aureus Sa4 NCTC 6571 = test: Antibacterial activity assay (MIC), S. aureus Sa4; type: cell-based; conditions: Staphylococcus aureus
S. aureus Sa1 ATCC 13709 = test: microbe, parasite or virus in culture; type: cell-based; conditions: Staphylococcus aureus
[7] = test system: E. coli Ec50 efflux pump KO; test: microbe, parasite or virus in culture; type: cell-based; conditions: Escherichia coli, read-out: MIC Ec50 efflux pump KO
[8] = test system: H. influenza Hi106 ATCC 51907; test: organism not typed; type: cell-based; conditions: read-out: MIC Hi106
[9] = test system: E. coli Ec113 efflux pump KO; test: microbe, parasite or virus in culture; type: cell-based; conditions: Escherichia coli, read-out: MIC Ec113 efflux pump KO
[10] = test system: H. influenza Hi10 clinical strain; test: organism not typed; type: cell-based; conditions: read-out: MIC Hi10
[11] = ATCC25923, read-out: MIC Sa26 + 10% SH, S. aureus Sa26 + 10% SH
[12] = ATCC25923, read-out: MIC Sa26 + 50% SH, S. aureus Sa26 + 50% SH
[13] = ATCC25923, S. aureus Sa26 ATCC 25923, sensitive strain, Mueller-Hinton Broth, 37° C., read-out: MIC Sa26
[14] = ATCC25922, E. coli Ec1 ATCC 25922, sensitive strain, read-out: MIC Ec1
[15] = NCTC6571, S. aureus Sa4 NCTC 6571, sensitive strain, read-out: MIC Sa4
[16] = ATCC13709, S. aureus Sa1 ATCC 13709, sensitive strain, Mueller-Hinton Broth, 37° C., read-out: MIC Sa1
[17] = ATCC25923, read-out: MIC Sa26 + 10% SH
[18] = ATCC25923, read-out: MIC Sa26 + 50% SH

SMILES	MIC [2]	IC50 [3]	MIC [4]	MIC [5, 11]	MIC [5, 12]	MIC [5, 13]	MIC [6]	IC50 (DNA III Polymerase E)	MIC (E. coli Ec1 ATCC 25922; [14])	MIC (S. aureus Sa4 NCTC 6571; [15])	MIC [7]	MIC [8]	MIC [9]	MIC [10]	MIC ([5]; ATCC25923, read-out: MIC Sa26)	MIC [5, 17]	MIC [5, 18]	MIC (E. coli Ec1 ATCC 25922; ATCC25922, read-out: MIC Ec1)	MIC (S. aureus Sa4 NCTC 6571; NCTC6571, read-out: MIC Sa4)	MIC (S. aureus Sa1 ATCC 13709; ATCC13709, read-out: MIC Sa1)	further results
COCC(=NO)[C@H]1OC(=O)[C@H](COC)[C@H]2C=C[C@H]3[C@H]4O[C@]2(/C(C)=C/[C@H]1C)[C@@H]3[C@H](O)[C@@H](COC)[C@H]4OC(=O)c1ccc[nH]1 [Compound 25, 18-Deoxy-18-oximino-8-O-1H-pyrrole-2′-carbonylbranimycin]	> 64 µg/mL	1.7 to 1700 nM	> 64 µg/mL	0.5 µg/mL	1 µg/mL	0.5 µg/mL (≈ 0.849 µM)	≤ 0.06 µg/mL	1700 to 17000 nM	> 64 µg/mL	0.25 µg/mL (≈ 0.425 µM)	0.5 µg/mL (≈ 0.849 µM)	> 64 µg/mL	0.25 µg/mL (≈ 0.425 µM)	> 64 µg/mL	–	–	–	–	–	–	log reduction at 50 mg/kg ([1]; Staphylococcus aureus, MRSA, in Mus musculus, read-out: Log reduction vs. untreated): 0.36; Active [1]: N; MIC (S. aureus Sa1 ATCC 13709; [16]): 0.25 µg/mL (≈ 0.425 µM)
COC[C@@H]1[C@@H](O)[C@@H]2[C@H]3C=C[C@@H]4[C@@H](COC)C(=O)O[C@H]([C@H](O)COC)[C@H](C)/C=C(\C)[C@@]24O[C@H]3[C@@H]1OC(=O)c1cc(C#N)c[nH]1 [Compound 26, 8-O-4-Cyano-1H-pyrrole-2′-carbonylbranimycin]	> 128 µg/mL	1.66 to 1660 nM	> 128 µg/mL	–	–	–	64 µg/mL (≈ 107 µM)	1660 to 16600 nM	–	–	2 µg/mL (≈ 3.33 µM)	> 128 µg/mL	4 µg/mL (≈ 6.66 µM)	> 128 µg/mL	128 µg/mL (≈ 213 µM)	128 µg/mL	64 µg/mL	> 128 µg/mL	64 µg/mL (≈ 107 µM)	64 µg/mL (≈ 107 µM)	–
COCC(=NO)[C@H]1OC(=O)[C@H](COC)[C@H]2C=C[C@H]3[C@H]4O[C@]2(/C(C)=C/[C@H]1C)[C@@H]3[C@H](O)[C@@H](COC)[C@H]4OC(=O)c1cc(F)c[nH]1 [Compound 40, 18-Deoxy-18-oximino-8-O-4-Fluoro-1H-pyrrole-2′-carbonylbranimycin]	> 64 µg/mL	1.65 to 1650 nM	> 64 µg/mL	1 µg/mL	1 µg/mL	1 µg/mL (≈ 1.65 µM)	0.25 µg/mL (≈ 0.412 µM)	1.65 to 1650 nM	> 64 µg/mL	0.12 µg/mL (≈ 0.198 µM)	16 µg/mL (≈ 26.4 µM)	> 64 µg/mL	0.25 µg/mL (≈ 0.412 µM)	64 µg/mL (≈ 105 µM)	–	–	–	–	–	–	MIC (S. aureus Sa1 ATCC 13709; [16]): 0.25 µg/mL (≈ 0.412 µM)
COC[C@@H]1[C@@H](O)[C@@H]2[C@H]3C=C[C@@H]4C[C@H](O)C(=O)O[C@H]([C@H](O)COC)[C@H](C)/C=C(\C)[C@@]24O[C@H]3[C@@H]1OC(=O)c1ccc[nH]1 [Nargenicin B1, reference compound]	> 64 µg/mL	1.78 to 1780 nM	> 64 µg/mL	–	–	–	0.5 µg/mL (≈ 0.89 µM)	> 17800 nM	–	–	16 µg/mL (≈ 28.5 µM)	> 64 µg/mL	2 µg/mL (≈ 3.56 µM)	> 64 µg/mL	2 µg/mL (≈ 3.56 µM)	2 µg/mL	1 µg/mL	> 64 µg/mL	0.5 µg/mL (≈ 0.89 µM)	1 µg/mL (≈ 1.78 µM)	–
CO[C@H]1C[C@H]2C=C[C@H]3[C@H]4O[C@]2(/C(C)=C/[C@@H](C)[C@@H]([C@@H](C)O)OC1=O)[C@@H]3[C@H](O)[C@@H](C)[C@H]4O [Nodusmicin, reference compound]	32 µg/mL (≈ 75.7 µM)	2.37 to 2370 nM	64 µg/mL (≈ 151 µM)	–	–	–	> 64 µg/mL	2370 to 23700 nM	–	–	1 µg/mL (≈ 2.37 µM)	64 µg/mL (≈ 151 µM)	0.25 µg/mL (≈ 0.592 µM)	64 µg/mL (≈ 151 µM)	> 64 µg/mL	> 64 µg/mL	> 64 µg/mL	> 64 µg/mL	> 64 µg/mL	> 64 µg/mL	–
